Ends that are not written are not given here.
Assays:
[1] = tested on: Enterococcus faecalis ATCC29212; details: ATCC29212
Experimental: (§1) Minimal inhibitory concentration (MIC) determination. The MICs of the peptides were measured using a modified broth microdilution method in Mueller Hinton (MH) medium. Wu et al., J. Biol. Chem. 274: 29-35, 1999. Briefly, the peptides were dissolved and stored in glass vials. The assay was performed in sterile 96-well polypropylene microtitre plates were used. Serial dilutions of the peptides to be assayed were performed in 0.01% acetic acid (Fisher) containing 0.2% bovine serum albumin (Boehringer Mannheim GmbH) at 10× the desired final concentration. Ten microlitres of the 10× peptides were added to each well of a 96-well polypropylene plate containing 90 μl of MH media per well. Bacteria were added to the plate from an overnight culture at 2-7×10^5 colony forming units/ml and incubated over night at 37° C. The MIC was taken as the concentration at which no growth was observed.
(§2) Strains. For the killing assay a mini-Tn5-lux mutant in Pseudomonas aeruginosa H103 was used. The strain is called H1001 and contains a fliC::luxCDABE transcriptional fusion resulting in constitutive expression of luciferase. The bacterial strains used for the antimicrobial activity assays included Escherichia coli UB1005 (F-, nalA37, metB1), a wild-type Salmonella enterica ssp. Typhimurium (S. Typhimurium), wild-type Pseudomonas aeruginosa PAO1 strain H103, Enterococcus faecalis ATCC29212, Staphylococcus aureus ATCC25923, and a clinical isolate of Staphylococcus epidermidis obtained from Dr. D. Speert (Department of Medicine, University of British Columbia). Antifungal activity was tested using a lab isolate of Candida albicans obtained from Dr. B. Dill (Department of Microbiology and Immunology, University of British Columbia).
(§3) In addition, the parent peptide Bac2A was included in these studies as a standard. The minimal inhibitory concentrations (MIC) were determined for the important medical pathogens Pseudomonas aeruginosa, Escherichia coli, Salmonella typhimurium, Staphylococcus aureus, Staphylococcus epidermidis, Enterococcus faecaelis, and the yeast Candida albicans in Mueller-Hinton media.

Candida albicans = tested on: Candida albicans
Experimental: as §1, §2, §3

[2] = tested on: Pseudomonas aeruginosa PAO1 strain H103; details: PAO1
Experimental: as §1, §2, §3

[3] = tested on: Staphylococcus aureus ATCC25923; details: ATCC25923
Experimental: as §1, §2, §3

[4] = tested on: Staphylococcus epidermidis
Experimental: as §1, §2, §3

[5] = tested on: Salmonella enterica ssp. Typhimurium; details: ssp. Typhimurium
Experimental: as §1, §2, §3

[6] = tested on: Pseudomonas aeruginosa strain H1001 fliC::luxCDABE; experiment: Luminescence-based assay for the non-cleaved (bound) peptides on cellulose membranes; type: cell-based; details: for Luminescence at the given time in minutes: 0 / Luminescence at the given time in minutes: 20 / Luminescence at the given time in minutes: 40 / Luminescence at the given time in minutes: 60 / Luminescence at the given time in minutes: 80 / Luminescence at the given time in minutes: 100 / Luminescence at the given time in minutes: 120 / Luminescence at the given time in minutes: 180 / Luminescence at the given time in minutes: 240: cellulose-bound peptide; for Luminescence at the given time in minutes: 0: 0 min; for Luminescence at the given time in minutes: 20: 20 min; for Luminescence at the given time in minutes: 40: 40 min; for Luminescence at the given time in minutes: 60: 60 min; for Luminescence at the given time in minutes: 80: 80 min; for Luminescence at the given time in minutes: 100: 100 min; for Luminescence at the given time in minutes: 120: 120 min; for Luminescence at the given time in minutes: 180: 180 min; for Luminescence at the given time in minutes: 240: 240 min; for Activity Class bound: uncleaved cellulose-bound peptides
How it was run: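 Peptides remained bound to cellulose spots, which were ethanol-washed and equilibrated in 100 mM Tris pH 7.3. Constitutively lux-expressing P. aeruginosa (OD600 0.35 culture diluted 1:25) added in 10 mM Tris-HCl pH 7.3, 20 mM glucose at 37° C. Luminescence (RLU) followed over 14 time points; peptides binned into six activity classes.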

[7] = tested on: Pseudomonas aeruginosa strain H1001; experiment: Assay for the cleaved (free, soluble) peptides from cellulose support, luminescence killing assay; type: cell-based; design: key: 1: Peptides showing stronger killing than Bac2A at a 4 to 8-fold higher dilution; Peptides showing stronger killing compared to that of Bac2A at a 4-fold higher dilution; 3: Peptides similar to Bac2A; 4: Peptides similar to Bac2A at the highest concentration but demonstrating weaker killing at a 2-fold dilution; 5: Peptides giving very weak or no killing at a 2-fold dilution; 6: Peptides with weak killing activity at the highest concentration; details: free (cleaved) peptides, killing relative to Bac2A
How it was run: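 Cellulose-synthesized peptides (amidated C-terminus, two β-alanines) cleaved by ammonia, released from punched spots 30 min at 37 °C, then serially diluted. P. aeruginosa H1001 (constitutive fliC::luxCDABE) overnight culture diluted 1:500 in LB or 100 mM Tris pH 7.3/20 mM glucose. Killing followed as time-dependent luminescence loss at 37 °C.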

| Substance | MIC E. faecalis [1] | MIC C. albicans (Candida albicans) | MIC P. aerug [2] | MIC S. aureus [3] | MIC S. epi. [4] | MIC S. Typhim. [5] | Luminescence at the given time in minutes: 0 [6] | Luminescence at the given time in minutes: 20 [6] | Luminescence at the given time in minutes: 40 [6] | Luminescence at the given time in minutes: 60 [6] | Luminescence at the given time in minutes: 80 [6] | Luminescence at the given time in minutes: 100 [6] | Luminescence at the given time in minutes: 120 [6] | Luminescence at the given time in minutes: 180 [6] | Luminescence at the given time in minutes: 240 [6] | Activity Class bound [6] | Activity Class Soluble [7] | MIC P. aeruginosa [2] |
| --- | --- | --- | --- | --- | --- | --- | --- | --- | --- | --- | --- | --- | --- | --- | --- | --- | --- | --- |
| RWWKIWVIRWWR-NH2 (C-terminus assumed) [Bac432] | 8 µg/mL | 31 µg/mL | 31 µg/mL | 8 µg/mL | 1 µg/mL | 16 µg/mL | – | – | – | – | – | – | – | – | – | – | – | – |
| RLARIVKIRVAR-NH2 (C-terminus assumed) [Bac323] | 125 µg/mL | 31 µg/mL | 31 µg/mL | 125 µg/mL | 31 µg/mL | 63 µg/mL | – | – | – | – | – | – | – | – | – | – | – | – |
| RLARQVVIRVAR-NH2 (C-terminus assumed) [Bac289] | 4 µg/mL | 8 µg/mL | 16 µg/mL | 8 µg/mL | 2 µg/mL | 8 µg/mL | – | – | – | – | – | – | – | – | – | – | – | – |
| GLARIVVIRVAR-NH2 (C-terminus assumed) [Bac206] | 31 µg/mL | 125 µg/mL | 125 µg/mL | 63 µg/mL | 16 µg/mL | 63 µg/mL | – | – | – | – | – | – | – | – | – | – | – | – |
| RLARIVVIRVA-NH2 (C-terminus assumed) [Bac101] | 31 µg/mL | 63 µg/mL | 63 µg/mL | 63 µg/mL | 16 µg/mL | 31 µg/mL | – | – | – | – | – | – | – | – | – | – | – | – |
| LARIVVIRVAR-NH2 (C-terminus assumed) [Bac102] | 46 µg/mL | 83 µg/mL | 83 µg/mL | 83 µg/mL | 11 µg/mL | >83 µg/mL | – | – | – | – | – | – | – | – | – | – | – | – |
| KIWVIRWR-NH2 (C-terminus assumed) [Bac434] | 16 µg/mL | 16 µg/mL | 16 µg/mL | 16 µg/mL | 4 µg/mL | 31 µg/mL | – | – | – | – | – | – | – | – | – | – | – | – |
| RLARIVVIRVAG-NH2 (C-terminus assumed) [Bac415] | 31 µg/mL | 63 µg/mL | 63 µg/mL | 63 µg/mL | 31 µg/mL | 63 µg/mL | – | – | – | – | – | – | – | – | – | – | – | – |
| RLRRIVVIRVRR-NH2 (C-terminus assumed) [Bac433] | 4 µg/mL | 31 µg/mL | 8 µg/mL | 8 µg/mL | 2 µg/mL | 8 µg/mL | – | – | – | – | – | – | – | – | – | – | – | – |
| RVLIVIRARRVA-NH2 (C-terminus assumed) [Bac043] | – | – | – | 23 µg/mL | – | – | 5254 RLU | 6385 RLU | 3722 RLU | 1189 RLU | 313 RLU | 159 RLU | 67 RLU | 84 RLU | 52 RLU | 3 (Peptides similar to Bac2A resulting in lux values of less than 500 after 240 min.) | 1 | 40 µg/mL |
| RRARIVVIRVAR-NH2 (C-terminus assumed) [Bac233] | 16 µg/mL | 8 µg/mL | 8 µg/mL | 16 µg/mL | 2 µg/mL | 8 µg/mL | – | – | – | – | – | – | – | – | – | – | – | – |
| RIWVIRWR-NH2 (C-terminus assumed) [Bac435] | 8 µg/mL | 16 µg/mL | 16 µg/mL | 4 µg/mL | 4 µg/mL | 16 µg/mL | – | – | – | – | – | – | – | – | – | – | – | – |
| VRIRARRVILVA-NH2 (C-terminus assumed) [Bac006] | – | – | – | 28 µg/mL | – | – | 3878 RLU | 6829 RLU | 4619 RLU | 2393 RLU | 867 RLU | 469 RLU | 277 RLU | 286 RLU | 306 RLU | 3 (Peptides similar to Bac2A resulting in lux values of less than 500 after 240 min.) | 1 | 28 µg/mL |
| RRWRIVVIRVRR-NH2 (C-terminus assumed) [Bac430] | 4 µg/mL | 4 µg/mL | 2 µg/mL | 2 µg/mL | 0.2 µg/mL | 4 µg/mL | – | – | – | – | – | – | – | – | – | – | – | – |
| RLRRIVVIRVAR-NH2 (C-terminus assumed) [Bac252] | 8 µg/mL | 16 µg/mL | 8 µg/mL | 8 µg/mL | 2 µg/mL | 8 µg/mL | – | – | – | – | – | – | – | – | – | – | – | – |
| RLARIVVIRV-NH2 (C-terminus assumed) [Bac103] | 23 µg/mL | 23 µg/mL | 46 µg/mL | 46 µg/mL | 11 µg/mL | 46 µg/mL | – | – | – | – | – | – | – | – | – | – | – | – |
| RGARIVVIRVAR-NH2 (C-terminus assumed) [Bac225] | 31 µg/mL | 16 µg/mL | 31 µg/mL | 31 µg/mL | 16 µg/mL | 31 µg/mL | – | – | – | – | – | – | – | – | – | – | – | – |
| RLARRVVIRVAR-NH2 (C-terminus assumed) [Bac290] | 125 µg/mL | 125 µg/mL | 63 µg/mL | 63 µg/mL | 16 µg/mL | 31 µg/mL | – | – | – | – | – | – | – | – | – | – | – | – |
| RLARIVVFRVAR-NH2 (C-terminus assumed) [Bac338] | >250 µg/mL | >250 µg/mL | >250 µg/mL | >250 µg/mL | >250 µg/mL | >250 µg/mL | – | – | – | – | – | – | – | – | – | – | – | – |
| RIWVIWRR-NH2 (C-terminus assumed) [Bac436] | 2 µg/mL | 8 µg/mL | 8 µg/mL | 2 µg/mL | 2 µg/mL | 8 µg/mL | – | – | – | – | – | – | – | – | – | – | – | – |
| RRWVIWRR-NH2 (C-terminus assumed) [Bac437] | 32 µg/mL | 63 µg/mL | 250 µg/mL | 16 µg/mL | 8 µg/mL | 31 µg/mL | – | – | – | – | – | – | – | – | – | – | – | – |
| RLWRIVVIRVAR-NH2 (C-terminus assumed) [Bac256] | 2 µg/mL | 8 µg/mL | 8 µg/mL | 2 µg/mL | 0.5 µg/mL | 8 µg/mL | – | – | – | – | – | – | – | – | – | – | – | – |
